The values that follow are results of earlier work, collected in patent US20090137633A1, “Stable pharmaceutical composition of rabeprazole” (priority 2003, published 2009).

Structures can show the parent of a compound that is named as a salt.

Series [1] concerns the target T1, gastric H^+ K^+ ATPase enzyme system (proton pump) (Homo sapiens, UniProt P20648).
T1 construct: at the secretory surface of the gastric parietal cell; host or cells: gastric parietal cell (in vivo)
The settings on record: in vivo.

T1 sequence (P20648 whole entry): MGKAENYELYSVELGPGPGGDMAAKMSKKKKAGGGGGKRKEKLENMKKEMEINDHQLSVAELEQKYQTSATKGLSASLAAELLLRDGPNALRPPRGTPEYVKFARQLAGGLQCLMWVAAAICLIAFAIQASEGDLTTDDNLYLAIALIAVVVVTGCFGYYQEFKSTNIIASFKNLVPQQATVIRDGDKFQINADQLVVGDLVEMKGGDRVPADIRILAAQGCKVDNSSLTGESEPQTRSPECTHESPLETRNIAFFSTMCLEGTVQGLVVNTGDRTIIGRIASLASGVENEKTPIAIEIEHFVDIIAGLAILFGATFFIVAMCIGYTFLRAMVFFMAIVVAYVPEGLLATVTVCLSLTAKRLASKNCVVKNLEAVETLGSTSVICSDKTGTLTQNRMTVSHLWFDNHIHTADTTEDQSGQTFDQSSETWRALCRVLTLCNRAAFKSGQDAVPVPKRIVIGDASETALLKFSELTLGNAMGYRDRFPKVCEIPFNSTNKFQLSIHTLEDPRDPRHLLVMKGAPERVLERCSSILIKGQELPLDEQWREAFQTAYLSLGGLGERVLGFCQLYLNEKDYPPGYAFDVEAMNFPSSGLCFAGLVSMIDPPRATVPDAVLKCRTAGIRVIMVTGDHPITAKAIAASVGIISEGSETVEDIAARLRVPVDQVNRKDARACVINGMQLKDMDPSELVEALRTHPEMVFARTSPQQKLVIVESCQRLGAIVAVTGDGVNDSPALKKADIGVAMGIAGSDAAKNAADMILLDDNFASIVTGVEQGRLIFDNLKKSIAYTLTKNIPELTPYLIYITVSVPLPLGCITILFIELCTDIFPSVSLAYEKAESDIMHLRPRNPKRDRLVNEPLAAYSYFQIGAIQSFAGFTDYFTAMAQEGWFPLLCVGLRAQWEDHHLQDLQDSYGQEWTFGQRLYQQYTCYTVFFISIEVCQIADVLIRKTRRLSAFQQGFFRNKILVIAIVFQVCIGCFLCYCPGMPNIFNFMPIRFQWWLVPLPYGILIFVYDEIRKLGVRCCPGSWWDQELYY
T1 sequence (P51164 whole entry partner): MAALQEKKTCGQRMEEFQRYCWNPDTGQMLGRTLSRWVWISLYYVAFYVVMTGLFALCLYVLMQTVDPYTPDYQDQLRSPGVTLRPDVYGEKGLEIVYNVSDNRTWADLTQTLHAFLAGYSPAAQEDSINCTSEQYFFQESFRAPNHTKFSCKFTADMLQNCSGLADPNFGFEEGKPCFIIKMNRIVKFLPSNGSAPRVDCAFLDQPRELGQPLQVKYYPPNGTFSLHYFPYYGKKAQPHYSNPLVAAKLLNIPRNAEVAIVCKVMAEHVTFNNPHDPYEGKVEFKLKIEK

For the compound `COCCCOc1ccnc(C[S+]([O-])c2nc3ccccc3[nH]2)c1C` (centres unmarked) [rabeprazole, 2-{[[4-(3-methoxypropoxy)-3-methyl]-2-pyridinyl]sulfinyl}-1H-benzimidazole sodium salt], the oral bioavalability result is recorded as “about 50%”. The “effect on intragastric pH in relation to cytochrome P450 2C19 genotype” value in series [1] is listed as “unaffected”.
